Data published in PubChem BioAssay AID2305 (GlaxoSmithKline (GSK), 2010).

Test system: P. falciparum 3D7 growth, pLDH absorbance
Assay: P. falciparum 3D7 growth inhibition, dose response, strain 3D7 (AID 2305)

Compared with `CS(=O)(=O)CCNC(=O)c1ccc(-c2cc3c(Nc4ccc5c(cnn5Cc5ccccc5)c4)ncnc3cn2)o1`, `CCOc1cc2ncnc(Nc3ccc(OCc4ccccc4Br)c(OC)c3)c2cc1OCC` is 2.1-fold lower in IC50: 1000 nM for the first, 470 nM for the second. The second is the more potent here.

`O=S(=O)(c1ccc(OCc2ccc(Cl)cc2)cc1)c1cc2c(c(-c3ccc(F)cc3)c1)CCN(CC1CC1)CC2` and `N#Cc1ccc(-c2ccc(C(=O)NCCCCN3CCC(c4ccc5c(c4OCc4ccncc4)CCCC5)CC3)cc2)cc1` are within 1.5-fold of each other in IC50: 1120 nM for the first, 760 nM for the second.

Compared with `Fc1ccc2cc(C=Cc3ccncc3)[nH]c2c1`, `O=C(NCc1ccc(Cl)c(Cl)c1)c1ccc(-c2nc3ccc(F)cc3[nH]2)cc1` is 1.7-fold higher in IC50: 620 nM for the first, 1030 nM for the second. The first is the more potent here.

Going from `CCOc1cc(C)ccc1C1CCN(CCCCNC(=O)c2ccc(NC(=O)c3cc(Cl)cc(Cl)c3)cc2)CC1` to `O=C(Nc1cccc(F)c1)NC1CCN(CCCCCNC(=O)[C@@H]2C[C@H]2c2ccc(Cl)c(Cl)c2)CC1`, the IC50 rises from 360 nM to 760 nM (2.1-fold). The first is the more potent here.

`NC(=O)c1ccc(NCC(=O)Nc2cccc(-c3cccc(-c4nc5ccccc5[nH]4)c3)c2)cc1` and `Cc1cccc(NC(=O)Nc2cccc(-c3ccc(-c4nc5ccc(C(F)(F)F)cc5[nH]4)cc3)c2)c1` are within 1.5-fold of each other in IC50: 990 nM for the first, 900 nM for the second.

`CNC(=O)CC(=O)NCCc1ccc(Cl)cc1` and `CCCCc1ccc(-c2c(N)nc(N)nc2CC)cc1` are within 1.5-fold of each other in IC50: 810 nM for the first, 950 nM for the second.

Going from `CN1CCN(c2nsc3ccc(-c4ccc(NC(=O)Nc5ccccc5)cc4)cc23)CC1` to `CN1CCN=C1c1ccc(NC(=O)Nc2ccc(C3=NCCN3C)cc2)cc1`, the IC50 rises from 180 nM to 380 nM (2.1-fold). The first is the more potent here.

Going from `CCCCCCCCCCNCC(O)c1ccc(O)c(C(=O)OC)c1` (stereo not given) to `COc1ccc(CNCCCCCCCNCc2ccc(Cl)c(Cl)c2)cc1Cl`, the IC50 rises from 720 nM to 1220 nM (1.7-fold). The first is the more potent here.

Compared with `CCc1ccc(-c2nc3cc(NC(=O)c4ccc([N+](=O)[O-])o4)ccc3o2)cc1`, `Cc1cc2nc(-c3ccc(C(=O)NCc4cccc(F)c4)cc3)[nH]c2cc1C` is 3.8-fold higher in IC50: 250 nM for the first, 960 nM for the second. The first is the more potent here.

Compared with `CCOC(=O)C1=C(C)NC(C)=C(C(=O)OCC)C1(C(=O)OCc1ccccc1)c1cccc(C(F)(F)F)c1`, `COc1cccc2cc(C(=O)N[C@@H](CC(C)C)C(=O)N[C@H](/C=N/N(C)C(=O)OC(C)(C)C)Cc3ccccc3)oc12` is 4.7-fold lower in IC50: 1230 nM for the first, 260 nM for the second.

Going from `COc1ccc2nccc([C@H](O)CN3CCC(NCc4ccc5c(c4C)OCCO5)CC3)c2n1` to `COc1ccc2nccc([C@@H](O)CN3CCC(NC(=O)C(c4cc5ccccc5o4)N4CCN(c5ccc(F)cc5)CC4)CC3)c2c1` (stereo not given in full), the IC50 falls from 890 nM to 200 nM (4.5-fold).

Going from `Cc1cccc2[nH]c(-c3ccc(-c4ccc(CN5CCCC(N)C5)cc4)cc3)nc12` (stereo not given) to `Cc1cccc2[nH]c(-c3cccc(-c4cccc(CN5CCC(CO)CC5)c4)c3)nc12`, the IC50 rises from 350 nM to 720 nM (2.1-fold). The first is the more potent here.

Compared with `Cc1c(C)n(C2CCCCC2)c2ncnc(OC3CCN(CC(=O)NC4CC4)CC3)c12`, `CCNC(=O)NC1CCN(Cc2c(-c3cccs3)nc3ccccc3c2C(=O)N[C@@H](C)C2CCCCC2)CC1` is 14-fold lower in IC50: 1240 nM for the first, 90 nM for the second.

Going from `COc1ccccc1CNCC(O)c1cc(C(F)(F)F)ccc1C(F)(F)F` (stereo not given) to `FC(F)(F)c1cccc2c(NN=Cc3ccccc3)ccnc12`, the IC50 falls from 940 nM to 620 nM (1.5-fold).

`COc1ccc(Nc2nc(NN=Cc3cc(Br)c(O)cc3O)nc(Nc3ccc([N+](=O)[O-])cc3)n2)cc1` and `Cc1ccc2nc(Nc3ccc(Nc4nc5ccc(C)cc5[nH]4)c(C)c3)[nH]c2c1` are within 1.5-fold of each other in IC50: 900 nM for the first, 770 nM for the second.

`Cc1ccccc1C1CCN(C2CCC(NC(=O)/C=C/c3cccc(F)c3F)CC2)CC1` (stereo not given) and `O=C(/C=C/c1ccc(I)cc1)NCCCCCN1CCC(c2c[nH]c3ccccc23)CC1` are within 1.5-fold of each other in IC50: 1150 nM for the first, 840 nM for the second.

`CC(C)(C)c1cc([N+](=O)[O-])cc(C(=O)Nc2ccccc2C(F)(F)F)c1O` and `O=C(Nc1ccc(Cl)cc1)c1cccc2[nH]c(C(F)(F)F)nc12` are within 1.5-fold of each other in IC50: 650 nM for the first, 760 nM for the second.

Compared with `NC12CC3CC(CC(C3)C1)C2`, `Clc1ccc(-c2cc(-c3csc(NCCN4CCCCC4)n3)on2)cc1` is 6.2-fold higher in IC50: 160 nM for the first, 990 nM for the second.

`Fc1ccc(OC2CN(c3nccc(NCc4ccccc4Cl)n3)C2)cc1` and `O=C(Nc1ccnc(N2C[C@H]3C[C@@H]2CN3Cc2cccc(O)c2)c1)c1ccc(F)cc1` are within 1.5-fold of each other in IC50: 900 nM for the first, 1240 nM for the second.

`Cc1cc(NC(=O)NCCN2CCC(NC(=O)c3cccc(Br)c3)C2)c2ccccc2n1` (stereo not given) and `O=C(N[C@H]1CCN(Cc2ccc(OCCN3CCCC3)c3ccccc23)C1)c1ccc(Cl)c(Cl)c1` are within 1.5-fold of each other in IC50: 550 nM for the first, 750 nM for the second.

`O=C(/C=C/c1ccc(Cl)c(Cl)c1)NCCCCCN1CCCN(C(=S)Nc2cccc(Cl)c2)CC1` and `O=C(Nc1cc(Cl)ccc1Cl)N[C@H]1CCN(CCCCCNC(=O)[C@@H]2C[C@H]2c2ccc(Cl)c(Cl)c2)C1` are within 1.5-fold of each other in IC50: 1050 nM for the first, 770 nM for the second.

`NCC1CCCN1Cc1cccc(-c2ccc(-c3nc4ccc(C(F)(F)F)cc4[nH]3)cc2)c1` (stereo not given) and `Cn1cnc(CCNC(=O)c2ccc(-c3cccc(-c4nc5ccc(F)cc5[nH]4)c3)cc2)c1` are within 1.5-fold of each other in IC50: 780 nM for the first, 680 nM for the second.

Going from `Cc1nnc2c(NC(=O)/C=C/c3ccc(OC(F)(F)F)cc3)cc3cc(Cl)ccc3n12` to `Cc1[nH]c2ccc(-c3ccc(OC(F)(F)F)cc3)cc2c(=O)c1C#N`, the IC50 falls from 170 nM to 20 nM (8.5-fold). The second is the more potent here.

First: CC(C)CNCc1ccc(-c2cccc(CN(C(=O)NC3CCCCC3)C3CCN(Cc4ccccc4)CC3)c2)cc1
Second: CC(C)c1ccc(CN2CCC(NC(=O)c3ccc(-c4cccc(F)c4)s3)CC2)cc1
The IC50 of the first is 1.7-fold lower: 800 nM for the first, 1330 nM for the second.

`Cc1cc(N2CCCC2)nc(Nc2ccc(NC(=O)CC(C)C)cc2)n1` and `Cc1cc(N[C@@H](CC(C)C)C(=O)Nc2ccccc2)nc(Nc2ccccc2)n1` are within 1.5-fold of each other in IC50: 840 nM for the first, 730 nM for the second.

Going from `CC(=O)Nc1ncc(C(=O)Nc2cccc(-c3ccc(-c4nc5ccc(C(F)(F)F)cc5[nH]4)s3)c2)s1` to `O=C(NC1CCCCC1)c1csc(C2CCCN(C(=O)c3ccc(O)c(-c4cccc(C(F)(F)F)c4)c3)C2)n1` (stereo not given), the IC50 rises from 400 nM to 1670 nM (4.2-fold). The first is the more potent here.

Compared with `COc1cc(NC(=O)/C=C/c2cc(F)cc(F)c2F)cc(OCCN2CCC(O)(c3ccccc3)CC2)c1`, `O=C(Nc1cccc(CN2CCCN(Cc3ccc(O)cc3)CC2)c1)c1cc2ccccc2o1` is 7.1-fold higher in IC50: 170 nM for the first, 1200 nM for the second. The first is the more potent here.

Compared with `O=c1c2c([nH]c3cc(Cl)ccc13)CCCC2`, `Nc1[nH]c2ccccc2c(=O)c1-c1nc2ccccc2s1` is 2.7-fold lower in IC50: 810 nM for the first, 300 nM for the second. The second is the more potent here.

`CCOc1ccc2c(NN=Cc3ccccc3F)cc(C)nc2c1` and `Cc1ccc2c(NC(=O)Nc3ccc(N(C)C)cc3)cc(C)nc2c1` are within 1.5-fold of each other in IC50: 680 nM for the first, 820 nM for the second.

`CN1CCC(NCc2cccc(-c3ccc(S(=O)(=O)NCCN4CCCC4)c(F)c3)c2)CC1` and `CCN(CCCN1CCCCC1)c1nc(C)cc(Nc2ccc(Cl)cc2)n1` are within 1.5-fold of each other in IC50: 1010 nM for the first, 840 nM for the second.

First: COc1ccccc1CCNc1nc(C)cc(N[C@@H](CC(C)C)C(=O)NCc2cccc(F)c2)n1
Second: CCN(CC)CCNc1ccc(Nc2ccnc3cc4ccccc4cc23)cc1
The IC50 of the first is 4.8-fold higher: 970 nM for the first, 200 nM for the second.

`CCCC(=O)NC(c1ccc(C(C)C)cc1)c1ccc2cccnc2c1O` (stereo not given) and `CN(C)c1ccc(C(c2ccc(N(C)C)cc2)c2cc([N+](=O)[O-])ccc2Cl)cc1` are within 1.5-fold of each other in IC50: 930 nM for the first, 910 nM for the second.

Going from `CCCc1cc(NCC)nc(Nc2ccc(C)cc2)n1` to `CCc1nc(N)nc(N)c1-c1ccc(C(C)(C)C)cc1`, the IC50 falls from 890 nM to 230 nM (3.9-fold).

Going from `COc1ccc2c(OC)ccc(CNCCCCCCNCc3ccc(OC)c4ccc(OC)cc34)c2c1` to `COc1ccc(C(=O)COc2cccc(/C=C/C(=O)O)c2)cc1OC`, the IC50 rises from 400 nM to 1320 nM (3.3-fold).

Going from `CCCN(CCC)C(=O)c1cc(C(=O)N[C@@H](Cc2ccccc2)[C@H](O)CNC(C)(C)c2cccc(OC)c2)cc(N2CCCCS2(=O)=O)c1` to `O=C(Nc1ccc(Cn2ncc(N3CCCNCC3)c(Cl)c2=O)cc1)Nc1cc(C(F)(F)F)cc(C(F)(F)F)c1`, the IC50 rises from 30 nM to 590 nM (20-fold). The first is the more potent here.
